Legend:
[1] = target: CLK2 (Homo sapiens, UniProt P49760); experiment: KINOMEscan competition binding, single dose […]
[2] = target: DYRK1B (Homo sapiens, UniProt Q9Y463); experiment: KINOMEscan competition binding, single dose […]
[3] = target: MYLK (Homo sapiens, UniProt Q15746); experiment: KINOMEscan competition binding, single dose […]
[4] = target: ALK(C1156Y) (Homo sapiens, UniProt Q9UM73, C1156Y); experiment: KINOMEscan competition binding, single dose […]
[5] = target: CLK1 (Homo sapiens, UniProt P49759); experiment: KINOMEscan competition binding, single dose […]
[6] = target: DYRK1A (Homo sapiens, UniProt Q13627); experiment: radiometric HotSpot kinase assay, […] ATP; type: biochemical
[7] = target: ALK (Homo sapiens, UniProt Q9UM73); experiment: KINOMEscan competition binding, single dose […]
Chain of ALK (Q9UM73 19-1620): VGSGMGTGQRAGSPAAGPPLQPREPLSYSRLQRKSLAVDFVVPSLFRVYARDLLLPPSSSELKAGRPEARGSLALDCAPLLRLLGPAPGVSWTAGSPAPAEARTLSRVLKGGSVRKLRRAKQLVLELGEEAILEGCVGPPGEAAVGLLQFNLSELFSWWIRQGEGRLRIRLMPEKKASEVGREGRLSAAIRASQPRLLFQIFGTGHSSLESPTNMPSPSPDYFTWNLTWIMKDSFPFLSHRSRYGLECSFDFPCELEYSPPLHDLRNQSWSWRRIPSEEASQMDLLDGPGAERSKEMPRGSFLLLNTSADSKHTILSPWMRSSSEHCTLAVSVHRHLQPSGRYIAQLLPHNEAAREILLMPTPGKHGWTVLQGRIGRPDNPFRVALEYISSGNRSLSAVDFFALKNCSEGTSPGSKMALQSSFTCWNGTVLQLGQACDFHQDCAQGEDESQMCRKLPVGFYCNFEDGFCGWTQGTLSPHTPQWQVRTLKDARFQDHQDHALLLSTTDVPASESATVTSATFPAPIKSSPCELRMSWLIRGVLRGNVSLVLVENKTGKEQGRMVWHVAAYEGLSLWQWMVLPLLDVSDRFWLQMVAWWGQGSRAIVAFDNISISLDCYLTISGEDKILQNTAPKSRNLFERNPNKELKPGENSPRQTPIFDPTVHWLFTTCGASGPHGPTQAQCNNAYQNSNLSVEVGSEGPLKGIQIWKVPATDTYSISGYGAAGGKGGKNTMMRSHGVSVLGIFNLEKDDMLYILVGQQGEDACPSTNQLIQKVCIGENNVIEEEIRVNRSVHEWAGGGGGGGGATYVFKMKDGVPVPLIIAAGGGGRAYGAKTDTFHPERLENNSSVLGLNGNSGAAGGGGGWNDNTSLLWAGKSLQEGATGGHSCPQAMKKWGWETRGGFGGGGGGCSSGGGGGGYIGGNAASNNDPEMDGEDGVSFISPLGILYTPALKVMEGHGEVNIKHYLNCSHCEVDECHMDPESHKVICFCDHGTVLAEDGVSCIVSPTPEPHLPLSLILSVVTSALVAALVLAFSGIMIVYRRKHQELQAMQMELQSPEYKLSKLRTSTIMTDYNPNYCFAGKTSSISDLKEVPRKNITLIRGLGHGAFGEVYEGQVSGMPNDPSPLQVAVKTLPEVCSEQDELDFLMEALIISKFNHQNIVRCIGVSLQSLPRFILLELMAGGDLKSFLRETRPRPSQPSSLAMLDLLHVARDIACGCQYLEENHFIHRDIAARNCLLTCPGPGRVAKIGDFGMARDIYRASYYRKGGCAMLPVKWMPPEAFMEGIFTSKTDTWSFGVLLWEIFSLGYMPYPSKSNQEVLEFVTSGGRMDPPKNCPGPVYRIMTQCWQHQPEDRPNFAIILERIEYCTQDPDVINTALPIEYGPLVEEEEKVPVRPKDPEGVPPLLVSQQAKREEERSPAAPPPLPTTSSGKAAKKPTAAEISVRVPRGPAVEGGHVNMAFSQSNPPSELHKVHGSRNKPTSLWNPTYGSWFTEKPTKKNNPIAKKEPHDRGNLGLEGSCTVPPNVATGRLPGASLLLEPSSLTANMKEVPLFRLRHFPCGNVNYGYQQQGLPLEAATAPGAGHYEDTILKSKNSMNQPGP

Chain of ALK(C1156Y) (Q9UM73 1093-1411 C1156Y limits assumed): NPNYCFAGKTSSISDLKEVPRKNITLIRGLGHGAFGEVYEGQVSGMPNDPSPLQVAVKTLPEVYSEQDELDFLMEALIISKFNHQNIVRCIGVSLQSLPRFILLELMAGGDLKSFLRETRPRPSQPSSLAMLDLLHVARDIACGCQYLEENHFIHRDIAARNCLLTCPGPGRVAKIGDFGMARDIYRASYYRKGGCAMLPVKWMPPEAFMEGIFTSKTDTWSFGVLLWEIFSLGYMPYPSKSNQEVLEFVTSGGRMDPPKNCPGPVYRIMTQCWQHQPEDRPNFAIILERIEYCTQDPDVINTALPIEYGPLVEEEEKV
Chain of DYRK1B (Q9Y463 whole entry): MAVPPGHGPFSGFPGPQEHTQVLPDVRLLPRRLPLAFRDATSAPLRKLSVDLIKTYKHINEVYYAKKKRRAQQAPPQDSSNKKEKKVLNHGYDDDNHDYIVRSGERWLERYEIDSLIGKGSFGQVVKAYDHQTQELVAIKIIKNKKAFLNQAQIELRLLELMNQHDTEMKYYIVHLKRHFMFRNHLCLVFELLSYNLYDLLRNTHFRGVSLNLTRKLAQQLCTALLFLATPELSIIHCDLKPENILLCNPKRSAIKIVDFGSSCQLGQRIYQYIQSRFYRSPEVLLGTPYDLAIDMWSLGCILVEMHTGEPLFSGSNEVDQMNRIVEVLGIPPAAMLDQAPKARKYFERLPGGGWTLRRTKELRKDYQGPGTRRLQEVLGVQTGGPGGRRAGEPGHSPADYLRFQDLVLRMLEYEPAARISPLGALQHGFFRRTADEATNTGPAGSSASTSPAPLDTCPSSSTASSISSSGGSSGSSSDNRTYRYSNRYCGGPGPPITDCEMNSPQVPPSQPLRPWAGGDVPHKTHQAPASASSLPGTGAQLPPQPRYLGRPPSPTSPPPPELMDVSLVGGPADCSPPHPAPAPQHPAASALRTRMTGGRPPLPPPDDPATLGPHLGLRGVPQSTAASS
Chain of CLK2 (P49760 whole entry): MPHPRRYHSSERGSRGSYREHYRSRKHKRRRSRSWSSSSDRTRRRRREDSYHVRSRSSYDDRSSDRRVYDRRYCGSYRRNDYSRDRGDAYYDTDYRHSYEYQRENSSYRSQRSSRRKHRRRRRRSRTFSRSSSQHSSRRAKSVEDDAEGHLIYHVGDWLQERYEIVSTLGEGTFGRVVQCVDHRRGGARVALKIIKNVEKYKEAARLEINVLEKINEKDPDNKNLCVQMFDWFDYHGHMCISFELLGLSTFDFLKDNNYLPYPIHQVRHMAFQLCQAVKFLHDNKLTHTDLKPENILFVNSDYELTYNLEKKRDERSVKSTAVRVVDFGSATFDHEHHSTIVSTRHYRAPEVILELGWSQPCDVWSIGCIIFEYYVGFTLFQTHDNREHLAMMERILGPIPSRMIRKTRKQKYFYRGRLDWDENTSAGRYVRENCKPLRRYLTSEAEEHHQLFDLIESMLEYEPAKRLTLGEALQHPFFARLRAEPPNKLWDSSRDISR
Chain of CLK1 (P49759 whole entry): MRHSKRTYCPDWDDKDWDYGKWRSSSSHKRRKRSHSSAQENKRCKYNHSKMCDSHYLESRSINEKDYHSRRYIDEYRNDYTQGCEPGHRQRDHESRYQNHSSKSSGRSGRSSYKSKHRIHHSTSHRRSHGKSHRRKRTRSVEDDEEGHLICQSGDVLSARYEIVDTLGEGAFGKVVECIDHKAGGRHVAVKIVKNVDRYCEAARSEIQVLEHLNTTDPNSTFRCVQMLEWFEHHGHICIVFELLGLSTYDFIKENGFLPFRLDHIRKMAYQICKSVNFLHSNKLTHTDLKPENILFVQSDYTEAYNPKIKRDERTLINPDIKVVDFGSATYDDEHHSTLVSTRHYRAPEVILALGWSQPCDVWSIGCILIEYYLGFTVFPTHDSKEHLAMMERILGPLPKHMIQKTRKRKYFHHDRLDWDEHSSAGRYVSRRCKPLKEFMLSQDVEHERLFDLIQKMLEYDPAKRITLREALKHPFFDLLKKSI

Substance: FRTX-02
- % of control unbound at 1 μM [1]: 3.3
- % of control unbound at 1 μM [2]: 1.8
- % of control unbound at 1 μM [3]: 7.8
- % of control unbound at 1 μM [4]: 2.5
- % of control unbound at 1 μM [5]: 1.1
- IC50 [6]: 2.9 nM
- % of control unbound at 1 μM [7]: 3.5

From PMC9841288 (Journal of Translational Autoimmunity, 2022)
